In PMC12010006, “Subnanomolar MAS-related G protein-coupled receptor-X2/B2 antagonists with efficacy in human mast cells and disease models” (Signal Transduction and Targeted Therapy, 2025):

How the values were obtained:
Format in all cases: cell-based
MRGPRX4 = biological target: T1, MRGPRX4 (Homo sapiens, UniProt Q96LA9); assay: β-arrestin assay, CHO cells expressing MRGPRX4 (subtype selectivity); conditions: 10 µM, versus PSB-18061 (2.6 µM)
T1 construct: host or cells: CHO-K1 beta-arrestin-2 (EA) cells
T1 sequence (Q96LA9 whole entry): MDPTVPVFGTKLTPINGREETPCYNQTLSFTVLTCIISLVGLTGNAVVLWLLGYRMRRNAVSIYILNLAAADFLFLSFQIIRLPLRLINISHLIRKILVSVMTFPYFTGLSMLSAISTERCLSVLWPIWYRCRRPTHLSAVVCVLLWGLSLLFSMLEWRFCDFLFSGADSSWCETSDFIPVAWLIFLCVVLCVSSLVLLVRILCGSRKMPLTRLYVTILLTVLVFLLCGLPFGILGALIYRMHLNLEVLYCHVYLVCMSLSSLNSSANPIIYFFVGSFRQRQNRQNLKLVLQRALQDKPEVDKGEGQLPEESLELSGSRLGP
Procedure: (§1) Fig. 1 Characterization of MRGPRX2 inhibitor 1. a Chemical structure and molecular weight (MW) of 1. b Concentration-response curve of 1 determined in β-arrestin recruitment assays. CHO cells that recombinantly express MRGPRX2 were employed versus the agonist CST-14 (at its EC80 value of 1.0 µM). […] Data are means ± SEM of 3 biological replicates, performed in duplicates. c MRGPRX subtype selectivity of 1 (10 µM) determined in β-arrestin assays using CHO cells that recombinantly express the respective MRGPRX subtype. MRGPRX1 was activated by BAM-22P (8.5 µM),[19] MRGPRX2 was activated by CST-14 (1 µM), MRGPRX3 was activated by PSB-20294 (1 µM), and MRGPRX4 by PSB-18061 (2.6 µM).[44] […] The effect of each MRGPRX agonist was assessed in the absence and in the presence of 1; results were normalized to the maximal agonist effect. […] Statistical significance was determined by one-way ANOVA (Tukey’s multiple comparisons) test (ns P > 0.05 and ****P < 0.0001) TEXT PRINTED IN THE PICTURE: (a) 1 Hit compound: MW: 241.29 g/mol
(§2) Fig. 3 Biological characterization of PSB-172656. a Selectivity of PSB-172656 (100 nM) for MRGPRX2 over MRGPRX1, MRGPRX3, and MRGPRX4 measured in β-arrestin assays utilizing β-arrestin-CHO cells with recombinant expression of the respective receptor. […] Statistical significance was determined by one-way ANOVA (Tukey’s multiple comparison) test (ns P > 0.05). […]

MRGPRX3 = biological target: T2, MRGPRX3 (Homo sapiens, UniProt Q96LB0); assay: β-arrestin assay, CHO cells expressing MRGPRX3 (subtype selectivity); conditions: 10 µM, versus PSB-20294
T2 construct: inferred from the enzyme-complementation principle of the assay; expressed in transfected cells; host or cells: CHO-K1 beta-arrestin-2 (EA) cells
T2 sequence (Q96LB0 whole entry): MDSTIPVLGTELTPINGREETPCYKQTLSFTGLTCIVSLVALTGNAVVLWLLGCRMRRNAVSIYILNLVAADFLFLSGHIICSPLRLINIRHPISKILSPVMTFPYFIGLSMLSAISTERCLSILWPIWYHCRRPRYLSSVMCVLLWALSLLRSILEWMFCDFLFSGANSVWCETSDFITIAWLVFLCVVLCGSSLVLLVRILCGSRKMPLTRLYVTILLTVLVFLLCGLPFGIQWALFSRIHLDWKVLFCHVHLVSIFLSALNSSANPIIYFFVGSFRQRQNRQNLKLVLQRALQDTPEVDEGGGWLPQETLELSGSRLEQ
Procedure: as §1, §2

MRGPRX1 = biological target: T3, MRGPRX1 (Homo sapiens, UniProt Q96LB2); assay: β-arrestin assay, CHO cells expressing MRGPRX1 (subtype selectivity); conditions: 10 µM, versus BAM-22P (8.5 µM)
T3 construct: host or cells: CHO-K1 beta-arrestin-2 (EA) cells
T3 sequence (Q96LB2 whole entry): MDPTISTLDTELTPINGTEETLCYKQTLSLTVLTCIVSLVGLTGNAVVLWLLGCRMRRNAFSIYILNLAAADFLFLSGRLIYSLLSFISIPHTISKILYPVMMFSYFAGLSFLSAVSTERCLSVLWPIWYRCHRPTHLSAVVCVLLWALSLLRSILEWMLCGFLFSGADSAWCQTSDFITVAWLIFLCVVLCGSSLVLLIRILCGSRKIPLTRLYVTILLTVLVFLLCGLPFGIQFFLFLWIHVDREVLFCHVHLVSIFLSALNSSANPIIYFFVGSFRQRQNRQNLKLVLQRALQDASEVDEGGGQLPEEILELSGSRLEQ
Procedure: as §1, §2

Structure (SMILES) | inhibition of MRGPRX4 activation (MRGPRX4) | inhibition of MRGPRX3 activation (MRGPRX3) | inhibition of MRGPRX1 activation (MRGPRX1)
CCCc1c(C)[nH]c2nc3ccccc3n2c1=O [Compound 1, 2-methyl-3-propylbenzo[4,5]imidazo[1,2-a]pyrimidin-4(1H)-one] | no inhibition | no inhibition | no inhibition
CCc1c(C(C)C)[nH]c2nc3cc(F)c(F)cc3n2c1=O [Compound 24, 3-ethyl-7,8-difluoro-2-isopropylbenzo[4,5]imidazo [1,2-a] pyrimidin-4(1H)-one] | not able to block | not able to block | not able to block
